Test results published in ChEMBL document CHEMBL1141312, “Induction of apoptosis by diterpenes from the soft coral Xenia elongata” (2007).
The source made the active and inactive calls. No cut-off for these calls is given here.

Assays:
W2 = experiment: (§1) Induction of apoptosis in mouse W2 cells assessed as cell death after 48 hrs by MTT assay; format: functional
[1] = as §1; format: functional
[2] = Induction of apoptosis in apoptosis-resistant mouse D3 cells assessed as cell growth after 48 hrs by MTT assay; format: functional
D3 [3] = experiment: Induction of apoptosis in mouse apoptosis-resistant D3 cells assessed as cell growth at 12 uM after 48 hrs by MTT assay; format: functional, cell-based
D3 [4] = experiment: Induction of apoptosis in mouse apoptosis-resistant D3 cells assessed as cell growth at 12 uM after 72 hrs by MTT assay; format: functional, cell-based

For `C=C1CC/C=C(\C)CC[C@H](/C(=C\C=C\C(C)(C)O)COC(C)=O)[C@H]1C(OC)OC`, the Activity (W2) was “Active”.
With `C=C1CC/C=C(\C)CC[C@@H]2C(C(CC3OC3(C)C)OC(C)=O)=CO[C@H](OC(C)=O)[C@@H]12` (some centres not stated) the Activity [1] was 50%, the Activity [2] was 61% and the Activity (D3 [3]) was “Active”. For the same compound, the Activity (D3 [4]) was “Active”.
With `C=C1CC/C=C(\C)CC[C@H](/C(=C\CC=C(C)C)COC(C)=O)[C@H]1C(=O)OC` the Activity (W2) was “Active”.
With `C=C1CC/C=C(\C)CC[C@H](/C(=C/C=C/C(C)(C)O)COC(C)=O)[C@H]1C(=O)OC` the Activity (W2) was “Active”.
